Reference: patent US20260055108A1, “TRIAZINE COMPOUNDS AND USES THEREOF” (HUTCHMED LIMITED, priority 2022, published 2026)

Key:
[1] = tested on: MV-4-11 cells (human acute myelogenous leukemia cell line carrying MLL-AF4 mutation); test: Cell proliferation assay, MV-4-11 (CellTiter-Glo); type: cell-based; details: Homo sapiens, MV4-11, 72 h, MV-4-11 cells, 3 days treatment, CellTiter-Glo; read-out: GI50
Description: Example 4 Cell Proliferation Assay
MV-4-11 (ATCC, CRL-9591), a human acute myelogenous leukemia cell line carrying MLL-AF4 mutation. Cells were cultured in an IMDM medium containing 10% heat-inactivated fetal bovine serum (HIFBS) and supplemented with 50 μM β-mercaptoethanol.
2. Reagents, Materials and Instruments:
• IMDM culture solution: GIBCO, 12440-053; • HIFBS: GIBCO, 10100-147; • β-mercaptoethanol: Sigma, M3148; • CellTiter-Glo® 2.0 assay kit (CTG): Promega, G9243; • DMSO: Sigma, D4540; • 96-well cell culture plate: Corning, 3903; • Envision: PerkinElmer.
MV-4-11 cells were resuspended in a medium, added to a 96-well plate at a density of 3000 cells/well with a volume of 100 μL/well, and cultured in a cell incubator at 5% CO2 and 37° C. for 4 hours. The test compound subjected to gradient dilution with the medium was added to a cell culture plate, and the final concentrations of the compound were 1.100, 0.367, 0.122, 0.041, 0.014, 0.005, 0.002 and 0.001 μM, respectively. The corresponding volume of DMSO diluent was added to a blank control well, and the final concentrations of DMSO in the experimental group and control group were both 0.1%. The cell plate was placed in a cell incubator at 5% CO2 and 37° C. and cultured for 3 days.
On day 0 and day 3 of the treatment, 50 μL/well CTG reagent was added to the cell plate and shaken at room temperature in the dark for 10 min, and then the chemiluminescence value of each well was measured with Envision.
[formula] • wherein: • luminescence valuetest sample: the chemiluminescence value of a cell well treated with the test compound for 3 days. • luminescence valueday 0: the chemiluminescence value of a cell well at day 0. • luminescence valuecell well: the chemiluminescence value of a cell well not treated with the compound for 3 days.
(§1) • calculated by using software XL-Fit™ (version 5.3) supplied by ID Business Solutions (Guildford, UK), which is an additional software to Microsoft Excel.

[2] = target: Recombinant human Menin protein (2-610) / MLL polypeptide binding (Homo sapiens (Human), UniProt O00255); test: Menin and MLL protein binding at a molecular level (fluorescence polarization method); details: inhibition of Menin / MLL polypeptide binding
Source text: Example 3: Determination of the Activity of the Compounds of the Present Invention on Menin and MLL Protein Binding at a Molecular Level (Fluorescence Polarization Method)
1. Reagents, Materials and Instruments:
• Recombinant human Menin protein (2-610): ChemPartner, CP2021020801; • MLL polypeptide (6-FAM-Ahx-SG-40): GL Biochem, 865700; • Trizma® hydrochloride buffer solution (Tris): Sigma, T2194-1 L; • NaCl: Invitrogen, AM9760G; • TCEP: Sigma, 646547; • DMSO: Sigma, D4540; • 384-well plate: Corning, 4514; • Envision: PerkinElmer.
2. Preparation of Reaction Solutions
• 1) Buffer solution: 20 mL of Tris and 4 mL of NaCl were added respectively to 376 mL of ddH2O, with pH adjusted to 7.5, and TCEP was added before testing with a dilution ratio of 1:500. • 2) 5× test compounds: the test compound was subjected to gradient dilution with the buffer solution to 5-fold the reaction concentration, so that the final concentrations of the compound were 1.000, 0.333, 0.111, 0.037, 0.012, 0.004, 0.001 and 0.0005 μM, respectively. • 3) 2.5× Menin protein reaction solution: the Menin protein was diluted to 5 nM with the buffer solution. • 4) 2.5×MLL polypeptide reaction solution: the MLL polypeptide was diluted to 5 nM with the buffer solution.
1) Binding Reaction (20 μL System)
4 μL of 5× test compound was added to each reaction well of the 384-well plate, and the corresponding volume of 10% DMSO was added to the control wells. Except the control wells, 8 μL of Menin protein reaction solution was added to each well. The reaction solution was incubated at room temperature for 30 minutes, and then 8 μL of MLL polypeptide reaction solution was added to each well. The final concentrations of DMSO in the test compound wells and control wells were all 2%. The 384-well plate was sealed and incubated at room temperature for 30 minutes in the dark.
Three control groups were set up: • a blank control group only containing a buffer solution; • a negative control group only containing MLL polypeptide reaction solution; and • a positive control group containing Menin protein reaction solution and MLL polypeptide reaction solution.
The vertical polarization S value and the horizontal polarization P value (excitation wavelength was 480 nm, and emission wavelength was 535 nm) were measured with Envision.
Corrected S is the S value of the negative control group—the S value of the blank control group
Corrected P is the P value of the negative control group—the P value of the blank control group
as §1

Sequence of Recombinant human Menin protein (2-610) / MLL polypeptide binding (O00255 2-610): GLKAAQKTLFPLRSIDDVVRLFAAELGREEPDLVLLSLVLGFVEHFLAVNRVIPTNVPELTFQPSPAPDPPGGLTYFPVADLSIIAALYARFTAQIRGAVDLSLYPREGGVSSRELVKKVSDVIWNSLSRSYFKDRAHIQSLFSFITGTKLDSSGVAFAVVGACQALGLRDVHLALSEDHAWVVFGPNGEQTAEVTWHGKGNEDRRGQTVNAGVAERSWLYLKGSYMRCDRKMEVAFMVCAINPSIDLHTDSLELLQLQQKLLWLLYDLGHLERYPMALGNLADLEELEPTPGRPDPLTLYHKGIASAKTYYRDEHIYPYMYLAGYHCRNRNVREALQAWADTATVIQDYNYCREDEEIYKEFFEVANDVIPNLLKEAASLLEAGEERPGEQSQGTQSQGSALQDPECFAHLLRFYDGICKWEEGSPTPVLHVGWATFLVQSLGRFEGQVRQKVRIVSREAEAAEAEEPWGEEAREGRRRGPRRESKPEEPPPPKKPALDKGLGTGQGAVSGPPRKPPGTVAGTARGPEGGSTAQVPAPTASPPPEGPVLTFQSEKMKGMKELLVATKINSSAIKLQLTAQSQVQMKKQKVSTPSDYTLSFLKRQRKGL

Structure (SMILES)	GI50 [1] [nM]	IC50 [2] [nM]
CCN(C(=O)c1cc(F)ccc1Oc1nncnc1N1CC2(CCN(CC3CCN(C(=O)C4(C#N)CC4)CC3)CC2)C1)C(C)C [Compound 12]	36	19.8
COc1cc(F)ccc1Oc1nncnc1N1CC2(CCN(Cc3ccc4c(cc(C#N)n4CCO)c3C)CC2)C1 [Compound 157]	252	305
CCN(C(=O)c1cc(F)ccc1Oc1nncnc1N1CC2(CCN(Cc3ccc4c(cc(C#N)n4CC(O)C(N)=O)c3C)CC2)C1)C(C)C (centres unmarked) [Compound 148]	221	5.3
CCN(C(=O)c1cc(F)ccc1Oc1nncnc1N1CC2(CCN(CC3CCN(C(=O)N(C)C)CC3)CC2)C1)C(C)C [Compound 24]	54	23
CCN(C(=O)c1cc(F)ccc1Oc1nncnc1N1CC2(CCN(CC3CCN(Cc4c(C)cc(C)[nH]c4=O)CC3)CC2)C1)C(C)C [Compound 138]	409	102
CCN(C(=O)c1cc(F)ccc1Oc1nncnc1N1CC2(CCN(CC3CCN(c4cc(OC)c(OC)nn4)CC3)CC2)C1)C(C)C [Compound 90]	2	2.1
CCN(C(=O)c1cc(F)ccc1Oc1nncnc1N1CC2(CCN(CC3CCN(C(=O)C4CC(F)(F)C4)CC3)CC2)C1)C(C)C [Compound 6]	13	6.7
CCN(C(=O)c1cc(F)ccc1Oc1nncnc1N1CC2(CCN(CC3CCN(S(C)(=O)=O)CC3)CC2)C1)C(C)C [Compound 22]	87	112
CCN(C(=O)c1cc(F)ccc1Oc1nncnc1N1CC2(CCN(CC3CCN(C(=O)NC(C)(C)C)CC3)CC2)C1)C(C)C [Compound 30]	5	1.7
Cc1c(CN2CCC3(CC2)CN(c2ncnnc2Oc2ccc(F)cc2)C3)ccc2c1cc(C#N)n2CCO [Compound 155]	276	292
CCN(C(=O)c1cc(F)ccc1Oc1nncnc1N1CC2(CCN(CC3CCC(n4ccccc4=O)CC3)CC2)C1)C(C)C (centres unmarked) [Compound 122]	119	> 200
CCN(C(=O)c1cc(F)ccc1Oc1nncnc1N1CC2(CCN(CC3CCN(c4ccc(N)nn4)CC3)CC2)C1)C(C)C [Compound 87]	156	37.2
CCN(C(=O)c1cc(F)ccc1Oc1nncnc1N1CC2(CCN(CC3CCN(c4cc(C(F)(F)F)cnn4)CC3)CC2)C1)C(C)C [Compound 45]	7	3.9
CCN(C(=O)c1cc(F)ccc1Oc1nncnc1N1CC2(CCN(CC3CCN(C(=O)CC#N)CC3)CC2)C1)C(C)C [Compound 13]	20	14.5
CCN(C(=O)c1cc(F)ccc1Oc1nncnc1N1CC2(CCN(CC3CCN(c4cnc(C#N)cn4)CC3)CC2)C1)C(C)C [Compound 49]	24	18.5
CCN(C(=O)c1cc(F)ccc1Oc1nncnc1N1CC2(CCN(Cc3ccc4oc(C(=O)NC)c(C)c4c3)CC2)C1)C(C)C [Compound 75]	883	955
CCN(C(=O)c1cc(F)ccc1Oc1nncnc1N1CC2(CCN(CC3CCN(C(=O)C4COC4)CC3)CC2)C1)C(C)C [Compound 5]	58	21.3
CCN(C(=O)c1cc(F)ccc1Oc1nncnc1N1CC(C2(N(C)Cc3cc(C(N)=O)n(C)n3)CC2)C1)C(C)C [Compound 145, 3-(((1-(1-(6-(2-(ethyl(isopropyl)carbamoyl)-4-fluorophenoxy)-1,2,4-triazin-5-yl)azetidin-3-yl)cyclopropyl)(methyl)amino)methyl)-1-methyl-1H-pyrazole-5-carboxamide]	> 3300	> 1000
CCN(C(=O)c1cc(F)ccc1Oc1nncnc1N1CC2(CCN(CC3(N(C)CCOC)CC3)CC2)C1)C(C)C [Compound 140]	37	31.6
CC(C)n1nccc1-c1cc(F)ccc1Oc1nncnc1N1CC2(CCN(CC3CCN(c4ccc(C(F)(F)F)nn4)CC3)CC2)C1 [Compound 91]	13	3.1
CCN(C(=O)c1cc(F)ccc1Oc1nncnc1N1CC2(CCN(CC3CCN(C(=O)C4(OC)CC4)CC3)CC2)C1)C(C)C [Compound 8]	86	34.6

The remaining compounds from weak to strong by GI50 [1], led by results:

GI50 [1] [nM]	IC50 [2] [nM]	Structure (SMILES)
110	89.4	CCN(C(=O)c1cc(F)ccc1Oc1nncnc1N1CC2(CCN(Cc3ccc(NCC#N)cc3C)CC2)C1)C(C)C [Compound 61]
81	28	CCN(C(=O)c1cc(F)ccc1Oc1nncnc1N1CC2(CCN(Cc3ccc4[nH]c(=O)ccc4c3)CC2)C1)C(C)C [Compound 72]
56	41.3	CCN(C(=O)c1cc(F)ccc1Oc1nncnc1N1CC2(CCN(C(C)C3CCN(c4cc(OC)c(OC)nn4)CC3)CC2)C1)C(C)C (centres unmarked) [Compound 171, 2-((5-(7-(1-(1-(5,6-dimethoxypyridazin-3-yl)piperidin-4-yl)ethyl)-2,7-diazaspiro[3.5]nonan-2-yl)-1,2,4-triazin-6-yl)oxy)-N-ethyl-5-fluoro-N-isopropylbenzamide]
37	89.9	CCN(C(=O)c1cc(F)ccc1Oc1nncnc1N1CC2(CCN(CC3CCN(c4ccc(Br)c(=O)n4C)CC3)CC2)C1)C(C)C [Compound 42]
36	15.2	CCN(C(=O)c1cc(F)ccc1Oc1nncnc1N1CC2(CCN(CC3CCN(c4ccnc(C(C)(C)O)c4)CC3)CC2)C1)C(C)C [Compound 120]
27	4.6	CCN(C(=O)c1cc(F)ccc1Oc1nncnc1N1CC2(CCN(CC3CCN(c4cccc(N)n4)CC3)CC2)C1)C(C)C [Compound 164, 2-((5-(7-((1-(6-aminopyridin-2-yl)piperidin-4-yl)methyl)-2,7-diazaspiro[3.5]nonan-2-yl)-1,2,4-triazin-6-yl)oxy)-N-ethyl-5-fluoro-N-isopropylbenzamide]
24	8.1	CCN(C(=O)c1cc(F)ccc1Oc1nncnc1N1CC2(CCN(CC3CCN(C(=O)NCc4ccccc4)CC3)CC2)C1)C(C)C [Compound 34]
23	11.4	CCN(C(=O)c1cc(F)ccc1Oc1nncnc1N1CC2(CCN(CC3CCN(c4cnccn4)CC3)CC2)C1)C(C)C [Compound 40]
18	5.2	CCN(C(=O)c1cc(F)ccc1Oc1nncnc1N1CC(C2(N(C)Cc3ccc4c(cc(C#N)n4CCO)c3C)CC2)C1)C(C)C [Compound 153]
14	4.3	CCN(C(=O)c1cc(F)ccc1Oc1nncnc1N1CC2(CCN(CC3CCN(c4ccc(C5CC5)nn4)CC3)CC2)C1)C(C)C [Compound 44]
8	3.2	CCN(C(=O)c1cc(F)ccc1Oc1nncnc1N1CC2(CCN(CC3CCN(C(=O)C4CC(C)(C)C4)CC3)CC2)C1)C(C)C [Compound 4]
6	4.2	CCN(C(=O)c1cc(F)ccc1Oc1nncnc1N1CC2(CCN(CC3CCN(c4cc(C)cnn4)CC3)CC2)C1)C(C)C [Compound 85]
2	0.8	CCN(C(=O)c1cc(F)ccc1Oc1nncnc1N1CC2(CCN(Cc3ccc4c(cc(C#N)n4CCO)c3C)CC2)C1)C(C)C [Compound 154]
